Test results: ChEMBL document CHEMBL2074019, “Functional characterization of human organic anion transporting polypeptide B (OATP-B) in comparison with liver-specific OATP-C” (Pharm Res, 2001)
Structures can show the parent of a compound that is named as a salt.

Tests used:
Type in all cases: functional, cell-based
[1] = biological target: T1, Solute carrier organic anion transporter family member 1B1 (Homo sapiens, UniProt Q9Y6L6); assay: TP_TRANSPORTER: inhibition of E1S uptake (E1S: 0.04 uM, Estrone-3-glucuronide: 100 uM) in OATP-C-expressing HEK293 cells; details: hek293, 100 µM
T1 sequence (Q9Y6L6 whole entry): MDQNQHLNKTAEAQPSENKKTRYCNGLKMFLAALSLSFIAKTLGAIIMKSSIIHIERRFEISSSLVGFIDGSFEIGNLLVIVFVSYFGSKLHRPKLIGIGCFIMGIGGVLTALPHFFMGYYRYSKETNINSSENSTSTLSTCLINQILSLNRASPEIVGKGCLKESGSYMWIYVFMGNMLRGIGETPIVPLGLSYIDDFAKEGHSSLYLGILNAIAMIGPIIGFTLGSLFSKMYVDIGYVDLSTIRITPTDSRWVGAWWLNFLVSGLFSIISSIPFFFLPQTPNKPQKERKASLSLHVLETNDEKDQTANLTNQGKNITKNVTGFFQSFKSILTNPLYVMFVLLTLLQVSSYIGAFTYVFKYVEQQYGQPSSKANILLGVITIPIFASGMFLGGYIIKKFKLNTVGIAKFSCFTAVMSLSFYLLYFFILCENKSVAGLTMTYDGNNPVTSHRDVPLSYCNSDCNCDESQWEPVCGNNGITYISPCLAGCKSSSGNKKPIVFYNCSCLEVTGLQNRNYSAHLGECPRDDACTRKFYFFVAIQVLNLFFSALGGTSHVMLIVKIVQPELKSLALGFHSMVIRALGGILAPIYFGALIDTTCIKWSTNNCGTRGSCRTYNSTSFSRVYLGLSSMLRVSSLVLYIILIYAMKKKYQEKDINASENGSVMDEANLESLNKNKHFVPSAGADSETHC

[2] = biological target: T2, Solute carrier organic anion transporter family member 2B1 (Homo sapiens, UniProt O94956); assay: TP_TRANSPORTER: inhibition of E1S uptake (E1S: 0.04 uM, Estradiol-3-sulfate: 100 uM) in OATP-B-expressing HEK293 cells; details: hek293, 100 µM
T2 sequence (O94956 whole entry): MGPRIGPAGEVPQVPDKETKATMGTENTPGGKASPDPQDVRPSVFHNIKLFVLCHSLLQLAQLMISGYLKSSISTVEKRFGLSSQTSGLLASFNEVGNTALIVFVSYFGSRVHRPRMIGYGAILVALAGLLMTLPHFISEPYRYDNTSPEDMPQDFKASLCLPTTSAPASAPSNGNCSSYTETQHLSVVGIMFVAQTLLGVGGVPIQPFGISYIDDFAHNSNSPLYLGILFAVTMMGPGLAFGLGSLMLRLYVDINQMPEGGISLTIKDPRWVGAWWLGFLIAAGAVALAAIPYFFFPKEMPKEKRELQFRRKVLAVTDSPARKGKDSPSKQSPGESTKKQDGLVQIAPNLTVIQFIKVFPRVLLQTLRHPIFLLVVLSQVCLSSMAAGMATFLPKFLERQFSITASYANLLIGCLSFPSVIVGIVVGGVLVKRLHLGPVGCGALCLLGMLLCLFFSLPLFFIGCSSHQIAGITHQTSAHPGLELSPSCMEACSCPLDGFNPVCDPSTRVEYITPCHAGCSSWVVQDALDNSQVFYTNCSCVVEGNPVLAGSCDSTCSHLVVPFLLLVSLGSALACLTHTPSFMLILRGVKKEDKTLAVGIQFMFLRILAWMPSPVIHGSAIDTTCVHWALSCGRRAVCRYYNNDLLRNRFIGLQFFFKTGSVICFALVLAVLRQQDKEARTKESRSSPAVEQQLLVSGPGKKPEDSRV

[3] = biological target: T1, Solute carrier organic anion transporter family member 1B1; assay: TP_TRANSPORTER: inhibition of E1S uptake (E1S: 0.04 uM, Estradiol-3-sulfate: 100 uM) in OATP-C-expressing HEK293 cells; details: hek293, 100 µM
[4] = biological target: T1, Solute carrier organic anion transporter family member 1B1; assay: TP_TRANSPORTER: inhibition of E217betaG uptake in OATP-C-expressing HEK293 cells
[5] = biological target: T1, Solute carrier organic anion transporter family member 1B1; assay: TP_TRANSPORTER: inhibition of E1S uptake (E1S: 0.04 uM, E217betaG: 100 uM) in OATP-C-expressing HEK293 cells; details: hek293, 100 µM
[6] = biological target: T1, Solute carrier organic anion transporter family member 1B1; assay: TP_TRANSPORTER: inhibition of E1S uptake (E1S: 0.04 uM, E2 3SO4 17betaG: 100 uM) in OATP-C-expressing HEK293 cells; details: hek293, 100 µM
[7] = biological target: T1, Solute carrier organic anion transporter family member 1B1; assay: TP_TRANSPORTER: inhibition of E1S uptake (E1S: 0.04 uM, beta-Estradiol: 100 uM) in OATP-C-expressing HEK293 cells; details: hek293, 100 µM
[8] = biological target: T2, Solute carrier organic anion transporter family member 2B1; assay: TP_TRANSPORTER: inhibition of E1S uptake (E1S: 0.04 uM, beta-Estradiol: 100 uM) in OATP-B-expressing HEK293 cells; details: hek293, 100 µM
[9] = biological target: T2, Solute carrier organic anion transporter family member 2B1; assay: TP_TRANSPORTER: inhibition of E1S uptake (E1S: 0.04 uM, #Estrone: 100 uM) in OATP-B-expressing HEK293 cells; details: hek293, 100 µM
[10] = biological target: T1, Solute carrier organic anion transporter family member 1B1; assay: TP_TRANSPORTER: inhibition of E1S uptake (E1S: 0.04 uM, #Estrone: 100 uM) in OATP-C-expressing HEK293 cells; details: hek293, 100 µM
[11] = substrate: C[C@]12CC[C@@H]3c4ccc(O)cc4CC[C@H]3[C@@H]1CC[C@@H]2O[C@@H]1O[C@H](C(=O)O)[C@@H](O)[C@H](O)[C@H]1O; assay: TP_TRANSPORTER: uptake in OATP-C-expressing HEK293 cells
[12] = substrate: C[C@]12CC[C@@H]3c4ccc(OS(=O)(=O)O)cc4CC[C@H]3[C@@H]1CCC2=O; assay: TP_TRANSPORTER: uptake in OATP-B-expressing HEK293 cells

Molecule: C[C@]12CC[C@@H]3c4ccc(O[C@@H]5O[C@H](C(=O)O)[C@@H](O)[C@H](O)[C@H]5O)cc4CC[C@H]3[C@@H]1CCC2=O
- Activity [1]: inhibitor [(at a rough estimate) 40 % of control]

Molecule: C[C@]12CC[C@@H]3c4ccc(OS(=O)(=O)O)cc4CC[C@H]3[C@@H]1CC[C@@H]2O
- Activity [2]: inhibitor [(at a rough estimate) 30 % of control]
- Activity [3]: inhibitor [(at a rough estimate) 10 % of control]

Molecule: C[C@]12CC[C@@H]3c4ccc(O)cc4CC[C@H]3[C@@H]1CC[C@@H]2O[C@@H]1O[C@H](C(=O)O)[C@@H](O)[C@H](O)[C@H]1O [ESTRADIOL 17B GLUCURONIDE]
- Ki [4]: 4430 nM
- Activity [5]: inhibitor [(at a rough estimate) <1 % of control]

Molecule: C[C@]12CC[C@@H]3c4ccc(OS(=O)(=O)O)cc4CC[C@H]3[C@@H]1CC[C@@H]2O[C@@H]1O[C@H](C(=O)O)[C@@H](O)[C@H](O)[C@H]1O [ESTRADIOL GLUCURONIDE SULFATE]
- Activity [6]: inhibitor [(at a rough estimate) 40 % of control]

Molecule: C[C@]12CC[C@@H]3c4ccc(O)cc4CC[C@H]3[C@@H]1CC[C@@H]2O [ESTRADIOL]
- Activity [7]: inhibitor [(at a rough estimate) 35 % of control]
- Activity [8]: inhibitor [(at a rough estimate) 60 % of control]

Molecule: C[C@]12CC[C@@H]3c4ccc(OS(=O)(=O)O)cc4CC[C@H]3[C@@H]1CCC2=O [ESTRONE SULFURIC ACID]
- Ki [4]: 45.8 nM

Molecule: C[C@]12CC[C@@H]3c4ccc(O)cc4CC[C@H]3[C@@H]1CCC2=O [ESTRONE]
- Activity [9]: inhibitor [(at a rough estimate) 45 % of control]
- Activity [10]: inhibitor [(at a rough estimate) 40 % of control]

B1: Solute carrier organic anion transporter family member 1B1 (Homo sapiens) (protein)
chain: T1 sequence (Q9Y6L6 whole entry)
- Km [11]: 3.71 µM

B2: Solute carrier organic anion transporter family member 2B1 (Homo sapiens) (protein)
chain: T2 sequence (O94956 whole entry)
- Km [12]: 12.5 µM
